Reference: PubChem BioAssay (NCI)
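Tested at 5 concentrations; 48 h exposure; 96-well plates; endpoints linearly interpolated, else capped at highest concentration. GI50: concentration for 50% inhibition of growth. TGI denotes the concentration required for complete inhibition of growth.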

Legend:
Experiment in all cases: inhibition of tumour cell growth, NCI panel, 48 h
[1] = system: 786-0 renal
[2] = system: A498 renal
[3] = system: A549 NSCLC
[4] = system: ACHN renal
[5] = system: BT-549 breast
[6] = system: CAKI-1 renal
[7] = system: CCRF-CEM leukemia
[8] = system: COLO 205 colon
[9] = system: DU-145 prostate
[10] = system: EKVX NSCLC
[11] = system: HCC-2998 colon
[12] = system: HCT-116 colon
[13] = system: HCT-15 colon
[14] = system: HL-60(TB) leukemia
[15] = system: HOP-62 NSCLC
[16] = system: HOP-92 NSCLC
[17] = system: HS 578T breast
[18] = system: HT29 colon
[19] = system: IGROV1 ovarian
[20] = system: K-562 leukemia
[21] = system: KM12 colon
[22] = system: LOX IMVI melanoma
[23] = system: M14 melanoma
[24] = system: MALME-3M melanoma
[25] = system: MCF7 breast
[26] = system: MDA-MB-231 breast
[27] = system: MDA-MB-435
[28] = system: MOLT-4 leukemia

SMILES: Cc1ccc(-c2nnc(SCc3ccc(O)c4ncccc34)n2-c2ccccc2)cc1
- GI50 [1]: 509 nM
- TGI [1]: 26700 nM
- GI50 [2]: 1500 nM
- TGI [2]: 13200 nM
- GI50 [3]: 366 nM
- TGI [3]: > 100000 nM
- GI50 [4]: 144 nM
- TGI [4]: 8020 nM
- GI50 [5]: 201 nM
- TGI [5]: > 21700 nM
- GI50 [6]: 312 nM
- TGI [6]: 7790 nM
- GI50 [7]: 94.9 nM
- TGI [7]: > 100000 nM
- GI50 [8]: 1440 nM
- TGI [8]: 6090 nM
- GI50 [9]: 298 nM
- TGI [9]: > 100000 nM
- GI50 [10]: 395 nM
- TGI [10]: > 60800 nM
- GI50 [11]: 326 nM
- TGI [11]: > 100000 nM
- GI50 [12]: 46.7 nM
- TGI [12]: > 35300 nM
- GI50 [13]: 66.6 nM
- TGI [13]: > 100000 nM
- GI50 [14]: 161 nM
- TGI [14]: > 39800 nM
- GI50 [15]: 345 nM
- TGI [15]: 2630 nM
- GI50 [16]: 195 nM
- TGI [16]: 1250 nM
- GI50 [17]: 236 nM
- TGI [17]: 2000 nM
- GI50 [18]: 3780 nM
- TGI [18]: > 100000 nM
- GI50 [19]: 284 nM
- TGI [19]: > 100000 nM
- GI50 [20]: 217 nM
- TGI [20]: > 100000 nM
- GI50 [21]: 294 nM
- TGI [21]: > 100000 nM
- GI50 [22]: 206 nM
- TGI [22]: 3970 nM
- GI50 [23]: 166 nM
- TGI [23]: 3240 nM
- GI50 [24]: 353 nM
- TGI [24]: 6670 nM
- GI50 [25]: 81.9 nM
- TGI [25]: > 100000 nM
- GI50 [26]: 439 nM
- TGI [26]: 24900 nM
- GI50 [27]: 110 nM
- TGI [27]: > 100000 nM
- GI50 [28]: 196 nM
- TGI [28]: > 100000 nM
